Where a name gives a salt, the structure may show the parent alone.
Assay: in vitro
Details: rat, gh3-tre-luc cells

SMILES | CC50 at 24 h (AC50 (uM) modified / 1000) [µM] | further results
CCN(CCCc1ccccc1)CCCc1ccccc1 [Alverine citrate] | > 20 | –
Nc1ncnc(Nc2ccccc2)n1 [Amanozine] | > 50 | –
NC12CC3CC(CC(C3)C1)C2 [Amantadine] | 36.1 | –
N=C(N)NN=C1C=CC(=NNC(N)=S)C=C1 [Ambazone] | 23 | –
CC[N+](CC)(CCNC(=O)C(=O)NCC[N+](CC)(CC)Cc1ccccc1Cl)Cc1ccccc1Cl [Ambenonium chloride] | > 50 | –
COC(c1ccccc1)(c1ccccc1)[C@H](Oc1nc(C)cc(C)n1)C(=O)O [Ambrisentan] | > 50 | –
Nc1c(Br)cc(Br)cc1CN[C@H]1CC[C@H](O)CC1 [Ambroxolhydrochloride] | > 50 | –
CC(=O)OCC(=O)[C@@]12OC3(CCCC3)O[C@@H]1C[C@H]1[C@@H]3CCC4=CC(=O)C=C[C@]4(C)[C@@]3(F)[C@@H](O)C[C@@]12C [Amcinonide] | > 50 | –
CC1(C)S[C@@H]2[C@H](N=CN3CCCCCC3)C(=O)N2[C@H]1C(=O)O [Amdinocillin] | > 50 | –
CCNc1nc(NC(C)C)nc(SC)n1 [Ametryn] | > 90 | –
Nc1c(CC(=O)O)cccc1C(=O)c1ccccc1 [Amfenac sodium] | > 50 | –
NCCCNCCSP(=O)(O)O [Amifostine] | > 50 | –
NCC[C@H](O)C(=O)N[C@@H]1C[C@H](N)[C@@H](O[C@H]2O[C@H](CN)[C@@H](O)[C@H](O)[C@H]2O)[C@H](O)[C@H]1O[C@H]1O[C@H](CO)[C@@H](O)[C@H](N)[C@H]1O [Amikacin] | > 50 | –
N=C(N)NC(=O)c1nc(Cl)c(N)nc1N [Amiloride hydrochloride] | > 90 | –
COc1ccc(/C=C/C(=O)OCCC(C)C)cc1 [Amiloxate] | > 50 | –
Cc1c(C)n(CCN(C)C)c2ccc(C(=O)OCCN(C)C)cc12 [Amindocate] | 34.1 | –
O=C(O)CCCCCCNC1c2ccccc2CCc2ccccc21 [Amineptine] | – | CC50 at 24 h (AC50 (uM) modified / 1000, Tox21_110001=Tox21_113313, viability, 1 nM T3 present, 24 h): > 50 µM
N=C(N)S(=O)O [Amino(imino)methanesulfinic acid] | > 90 | –
CNC(=O)Oc1ccc(N(C)C)c(C)c1 [Aminocarb] | – | CC50 at 24 h (AC50 (uM) modified / 1000, Tox21_110001=Tox21_301423, viability, 1 nM T3 present, 24 h): > 90 µM
CCC1(c2ccc(N)cc2)CCC(=O)NC1=O (stereo not shown) [Aminoglutethimide] | > 50 | –
N=C(N)NN [Aminoguanidine hydrochloride] | > 90 | –
Nc1ccc(C(=O)NCC(=O)O)cc1 [Aminohippuric acid] | > 20 | –
CCN(CC)CCCC(C)Nc1cc(/C=C/c2ccccc2Cl)nc2cc(Cl)ccc12 (stereo not shown) [Aminoquinol] | 20.1 | –
Cc1cc(N)c2cc(NC(=O)Nc3ccc4nc(C)cc(N)c4c3)ccc2n1 [Aminoquinuride dihydrochloride] | 35 | –
O=P(O)(O)CN(CP(=O)(O)O)CP(=O)(O)O [Aminotrimethylene phosphonic acid] | – | CC50 at 24 h (AC50 (uM) modified / 1000, Tox21_110001=Tox21_202753, viability, 1 nM T3 present, 24 h): > 20 µM

SMILES | CC50 at 24 h (AC50 (uM) modified / 1000) [µM] | further results
Nc1nc(N)c(-c2ccccc2)s1 [Amiphenazole] | > 50 | –
CN(C)CCCO[C@@H]1[C@H]2OC(C)(C)O[C@H]2O[C@@H]1[C@H](O)CO [Amiprilose hydrochloride] | > 50 | –
COP(=S)(NC(C)C)Oc1ccc(C)cc1[N+](=O)[O-] (stereo not shown) [Amiprofos-methyl] | – | CC50 at 24 h (AC50 (uM) modified / 1000, Tox21_110001=Tox21_301206, viability, 1 nM T3 present, 24 h): > 90 µM
CCN1CCCC1CNC(=O)c1cc(S(=O)(=O)CC)c(N)cc1OC (stereo not shown) [Amisulpride] | > 50 | –
CC(=O)Nc1ccc(/C=N/NC(N)=S)cc1 [Amithiozone] | > 50 | –
Nc1nc[nH]n1 [Amitrole] | > 90 | –
CC(C)c1ccc2oc3nc(N)c(C(=O)O)cc3c(=O)c2c1 [Amlenanox] | > 50 | –
CCOC(=O)C1=C(COCCN)NC(C)=C(C(=O)OC)C1c1ccccc1Cl (stereo not shown) [Amlodipine besylate] | 19.7 | –
NC(=O)O [Ammonium carbamate] | – | CC50 at 24 h (AC50 (uM) modified / 1000, Tox21_110001=Tox21_302509, viability, 1 nM T3 present, 24 h): > 90 µM
CC1(C)[C@@H](O[C@H]2O[C@H](C(=O)O)[C@@H](O)[C@H](O)[C@H]2O[C@@H]2O[C@H](C(=O)O)[C@@H](O)[C@H](O)[C@H]2O)CC[C@]2(C)[C@H]3C(=O)C=C4[C@@H]5C[C@@](C)(C(=O)O)CC[C@]5(C)CC[C@@]4(C)[C@]3(C)CC[C@@H]12 [Ammonium glycyrrhizinate trihydrate] | > 70 | –
O=C(O)C(F)(F)C(F)(F)C(F)(F)C(F)(F)C(F)(F)C(F)(F)C(F)(F)F [Ammonium perfluorooctanoate] | – | CC50 at 24 h (AC50 (uM) modified / 1000, Tox21_110001=Tox21_300595, viability, 1 nM T3 present, 24 h): > 90 µM
CCC1(CCC(C)C)C(=O)NC(=O)NC1=O [Amobarbital] | > 90 | –
CCN(CC)Cc1cc(Nc2ccnc3cc(Cl)ccc23)ccc1O [Amodiaquin dihydrochloride dihydrate] | 13.5 | –
CCC(C)(C)OC(=O)N[C@@H](Cc1c[nH]c2ccccc12)C(=O)N[C@@H](CCSC)C(=O)N[C@@H](CC(=O)O)C(=O)N[C@@H](Cc1ccccc1)C(N)=O [Amogastrin] | > 50 | –
COc1cc(C(=O)OC(COCCC(C)C)CN2CCOCC2)cc(OC)c1OC (stereo not shown) [Amoproxan] | > 50 | –
CCC(C)(C)c1ccc(CC(C)CN2C[C@@H](C)O[C@@H](C)C2)cc1 (stereo partly shown) [Amorolfine] | 11.1 | –
CC1(C)S[C@@H]2[C@H](NC(=O)[C@H](N)c3ccc(O)cc3)C(=O)N2[C@H]1C(=O)O [Amoxicillin] | > 50 | –
CCNC(=O)N1CCN(CCCC(c2ccc(F)cc2)c2ccc(F)cc2)CC1 [Amperozide hydrochloride] | 19.7 | –
C[C@@H]1[C@H](O)[C@@H](C)/C=C/C=C/C=C/C=C/C=C/C=C/C=C/[C@H](O[C@@H]2O[C@H](C)[C@@H](O)[C@H](N)[C@@H]2O)C[C@@H]2O[C@](O)(C[C@@H](O)C[C@@H](O)[C@H](O)CC[C@@H](O)C[C@@H](O)CC(=O)O[C@H]1C)C[C@H](O)[C@H]2C(=O)O [Amphotericin B] | 32.9 | –
CC1(C)S[C@@H]2[C@H](NC(=O)[C@H](N)c3ccccc3)C(=O)N2[C@H]1C(=O)O [Ampicillin trihydrate] | > 90 | –
CCOC(=O)OC(C)OC1=C(C(=O)Nc2ccccn2)N(C)S(=O)(=O)c2ccccc21 (stereo not shown) [Ampiroxicam] | > 50 | –
CC(C)CN(C[C@@H](O)[C@H](Cc1ccccc1)NC(=O)O[C@H]1CCOC1)S(=O)(=O)c1ccc(N)cc1 [Amprenavir] | > 50 | –
CCCc1ncc(C[n+]2ccccc2C)c(N)n1 [Amprolium hydrochloride] | > 20 | –
Cc1c(N)c(=O)n(-c2ccccc2)n1C [Ampyrone] | > 20 | –
Nc1cc(-c2ccncc2)c[nH]c1=O [Amrinone] | > 90 | –

SMILES | CC50 at 24 h (AC50 (uM) modified / 1000) [µM] | further results
COc1cc(NS(C)(=O)=O)ccc1Nc1c2ccccc2nc2ccccc12 [Amsacrine hydrochloride] | 0.432 | –
CCCCCc1ccc(C)cc1O [Amylmetacresol] | > 50 | –
C[N+]1(CC2COC(c3ccccc3)(c3ccccc3)O2)CCCCC1 (stereo not shown) [Anacolin] | > 50 | –
O=C1CN2Cc3c(ccc(Cl)c3Cl)N=C2N1 [Anagrelide hydrochloride] | > 50 | –
CC(C)(C#N)c1cc(Cn2cncn2)cc(C(C)(C)C#N)c1 [Anastrozole] | > 30 | –
O=S(=O)(O)c1cc(O)c2c(/N=N/c3ccc(Nc4ccccc4)c4c(S(=O)(=O)O)cccc34)cc(S(=O)(=O)O)cc2c1 [Anazolene sodium] | 22.8 | –
COc1ccc(C(O)(c2cncnc2)C2CC2)cc1 (stereo not shown) [Ancymidol] | > 90 | –
C[C@]12CC[C@H]3[C@@H](CC=C4C[C@@H](O)CC[C@@]43C)[C@@H]1CC[C@@H]2O [Androstenediol] | – | CC50 at 24 h (AC50 (uM) modified / 1000, Tox21_110001=Tox21_112495, viability, 1 nM T3 present, 24 h): > 50 µM
C[C@]12CCC(=O)C[C@@H]1CC[C@@H]1[C@@H]2CC[C@]2(C)C=CC[C@@H]12 [Androstenone] | > 50 | –
CC(=O)OCC(=O)[C@@]1(O)CC[C@H]2[C@@H]3CCC4=CC(=O)CC[C@]4(C)C3=CC[C@@]21C [Anecortave acetate] | > 50 | –
COc1ccc(-c2cc(=S)ss2)cc1 [Anethole trithione] | > 50 | –
C/C=C/c1ccc(OC)cc1 [Anethole] | > 90 | –
CCCCCCCCCCCCCCCCCC(=O)OC[C@@H](O)[C@H]1OC[C@H](O)[C@H]1O [Anhydrosorbitol stearate] | > 50 | –
CNC(=O)Oc1ccccc1C(=O)Nc1ccccc1 [Anilamate] | – | CC50 at 24 h (AC50 (uM) modified / 1000, Tox21_110001=Tox21_111928, viability, 1 nM T3 present, 24 h): > 50 µM
Clc1nc(Cl)nc(Nc2ccccc2Cl)n1 [Anilazine] | > 90 | –
Nc1ccccc1 [Anilinium nitrate] | > 50 | –
COc1ccc(C(=O)N2CCCC2=O)cc1 [Aniracetam] | > 50 | –
COc1ccc(C2C(=O)c3ccccc3C2=O)cc1 [Anisindione] | > 50 | –
CCCC(CCC)C(=O)OC1C[C@H]2CC[C@@H](C1)[N+]2(C)C (stereo partly shown) [Anisotropine methylbromide] | > 50 | –
CCC(=O)OCc1ccc(OC)cc1 [Anisyl propionate] | > 90 | –
Clc1cccc(SC2CCNCC2)n1 [Anpirtoline] | > 50 | –
c1ccc(CN(CC2=NCCN2)c2ccccc2)cc1 [Antazoline hydrochloride] | 21.1 | –
c1ccc2cc3ccccc3cc2c1 [Anthracene] | > 90 | –
O=C1c2c(O)cccc2Cc2cccc(O)c21 [Anthralin] | > 90 | –
Nc1ccccc1C(=O)O [Anthranilic acid] | – | CC50 at 24 h (AC50 (uM) modified / 1000, Tox21_110001=Tox21_111095, viability, 1 nM T3 present, 24 h): > 50 µM; CC50 at 24 h (AC50 (uM) modified / 1000, Tox21_110001=Tox21_200703, viability, 1 nM T3 present, 24 h): > 90 µM

From article PMC6792352, “Limited Chemical Structural Diversity Found to Modulate Thyroid Hormone Receptor in the Tox21 Chemical Library” (Environmental Health Perspectives, 2019)
